We go through 13 compounds from ChEMBL document CHEMBL5625161, “Pharmacological activity and mechanism of pyrazines” (Eur J Med Chem, 2023).

Values after ≈ are worked out from the molar mass of the structure shown.

In data set [1] the test system is PC-9. Kind of data set: Antiproliferative activity against human PC-9 cells assessed as reduction in cell growth incubated for 72 hrs by MTT assay. In kind it is functional, cell-based. The note with it: PC-9, 72 h.
In data set [2] the test system is PC-9/ER. In words: Antiproliferative activity against human PC-9/ER cells assessed as inhibition of cell growth incubated for 48 hrs by MTT assay. In kind it is functional. On the technique in general: Formazan colour is commonly taken as a measure of viable cells.
Data set [3] concerns K562. In words: Cytotoxicity against human K562 cells assessed as cell growth inhibition measured after 48 hrs by MTT assay. In kind it is functional, cell-based. The note with it: K562, 48 h.
For data set [4], the system named is HCT-116. Kind of data set: Cytotoxicity against human HCT-116 cells assessed as cell growth inhibition measured after 48 hrs by MTT assay. In kind it is functional, cell-based. The note with it: HCT-116, 48 h.
Data set [5] concerns MCF7. In words: Cytotoxicity against human MCF7 cells assessed as cell growth inhibition measured after 48 hrs by MTT assay. In kind it is functional, cell-based. Conditions: MCF7, 48 h.
The target in data set [6] is Amine oxidase [flavin-containing] B (Homo sapiens, UniProt P27338). Kind of data set: Inhibition of human recombinant MAO-B expressed in insect cells incubated for 15 mins by Amplex red and horseradish peroxidase based fluorescence assay. Set-up: species or system Insect cell.
Data set [7] deals with HT-29. In words: Antiproliferative activity against human HT-29 cells assessed as reduction in cell viability incubated for 72 hrs by MTT assay. The note with it: HT-29, 72 h. In kind it is functional, cell-based.
The test system of data set [8] is KG-1. In words: Antiproliferative activity against FGFR1-translocated human KG-1 cells assessed as reduction in cell viability incubated for 72 hrs by CCK-8 assay. In kind it is functional, cell-based. Conditions: KG-1, 72 h.
Data set [9] deals with Fibroblast growth factor receptor 1 (Homo sapiens, UniProt P11362). In words: Inhibition of human recombinant FGFR1 (461 to 768 residues) expressed in Escherichia coli BL21 Gold(DE3) cells by spectrophotometer method.
Data set [10] deals with MCF7. Kind of data set: Antiproliferative activity against human MCF7 cells assessed as reduction in cell growth by MTT assay. In kind it is functional, cell-based.
Data set [11] concerns BGC-823. In words: Antiproliferative activity against human BGC-823 cells assessed as reduction in cell growth by MTT assay. In kind it is functional, cell-based.
Data set [12] relates to A-375. In words: Antiproliferative activity against human A-375 cells assessed as reduction in cell growth by MTT assay. In kind it is functional, cell-based.
The test system of data set [13] is HCT-116. In words: Antiproliferative activity against human HCT-116 cells assessed as reduction in cell growth by MTT assay. In kind it is functional, cell-based.
Data set [14] deals with MIA PaCa-2. Kind of data set: Antiproliferative activity against human MIA PaCa-2 cells assessed as reduction in cell growth by MTT assay. In kind it is functional, cell-based.
A short description of data set [15]: Antiproliferative activity against human THLE-2 cells assessed as reduction in cell viability incubated for 48 hrs by CCK-8 assay. In kind it is toxicity, cell-based.
The nature of data set [16]: Selectivity index, ratio of IC50 for antiproliferative activity against human THLE-2 cells to IC50 for antiproliferative activity against human PC-3 cells.
Data set [17] has as its system PC-3. In words: Antiproliferative activity against human PC-3 cells assessed as reduction in cell viability incubated for 48 hrs by CCK-8 assay. In kind it is functional, cell-based. Conditions: PC-3, 48 h.
Data set [18] deals with A549. Kind of data set: Cytotoxicity against human A549 cells assessed as cell growth inhibition at 10 uM measured after 48 hrs by SRB assay relative to control. In kind it is functional. On the set-up: scale not given: the % may be the effect or the level left. On the technique in general: In SRB staining, fixed cells bind dye roughly in proportion to their protein.
For data set [19], the system named is LOX IMVI. In words: Cytotoxicity against human LOX IMVI cells assessed as cell growth inhibition at 10 uM measured after 48 hrs by SRB assay relative to control. In kind it is functional. On the set-up: scale not given: the % may be the effect or the level left.
Data set [20] deals with MDA-MB-231. Kind of data set: Cytotoxicity against human MDA-MB-231 cells assessed as cell growth inhibition at 10 uM measured after 48 hrs by SRB assay relative to control. In kind it is functional. On the set-up: scale not given: the % may be the effect or the level left.
Data set [21] concerns PC-3. Kind of data set: Cytotoxicity against human PC-3 cells assessed as cell growth inhibition at 10 uM measured after 48 hrs by SRB assay relative to control. In kind it is functional. On the set-up: scale not given: the % may be the effect or the level left.
In data set [22] the test system is SNB-75. Kind of data set: Cytotoxicity against human SNB-75 cells assessed as cell growth inhibition at 10 uM measured after 48 hrs by SRB assay relative to control. In kind it is functional. Set-up: scale not given: the % may be the effect or the level left.
Data set [23] concerns Caco-2. In words: Growth inhibition of human Caco-2 cells measured after 48 hrs by SRB assay. In kind it is functional.
Data set [24] has as its system MCF7. In words: Growth inhibition of human MCF7 cells measured after 48 hrs by SRB assay. In kind it is functional.
For data set [25], the system named is NCI-H460. Kind of data set: Growth inhibition of human NCI-H460 cells measured after 48 hrs by SRB assay. In kind it is functional.
Data set [26] in a line: Cytotoxicity against African green monkey Vero cells incubated for 48 hrs by SRB colorimetric assay. In kind it is toxicity, cell-based, Chlorocebus sabaeus.
Data set [27] deals with BJ. Kind of data set: Cytotoxicity against human BJ cells assessed as cell growth inhibition measured after 72 hrs by Celltiter-Glo assay. In kind it is functional, cell-based.
The test system of data set [28] is LN-229. Kind of data set: Cytotoxicity against human LN-229 cells assessed as reduction in cell growth incubated for 72 hrs by Celltiter-Glo assay. The note with it: LN-229, 72 h. In kind it is functional, cell-based. In general terms: In ATP-based viability assays light output follows the ATP content of the culture.
Data set [29] concerns Human coronavirus 229E. In words: Antiviral activity against Human coronavirus 229E cells assessed as inhibition of virus-induced cytopathic effect by crystal violet staining based analysis. In kind it is functional, organism-based.
For data set [30], the system named is Rhizoctonia solani. In words: Antifungal activity Rhizoctonia solani assessed as fungal growth inhibition measured after 4 to 8 days. In kind it is functional, organism-based.
The subject of data set [31] is Phytophthora nicotianae. In words: Antifungal activity against Phytophthora nicotianae assessed a fungal growth inhibition measured after 4 to 8 days. In kind it is functional, organism-based.
Data set [32] has as its target Histone deacetylase 1 (Homo sapiens, UniProt Q13547). Kind of data set: Inhibition of human recombinant HDAC1.
The target in data set [33] is Histone deacetylase 3 (Homo sapiens, UniProt O15379). In words: Inhibition of human recombinant HDAC3.
Data set [34] relates to MCF7. In words: Antiproliferative activity against human MCF7 cells assessed as reduction in cell viability incubated for 48 hrs by MTT assay. In kind it is functional, cell-based. Conditions: MCF7, 48 h.
The target of data set [35] is Histone deacetylase 2 (Homo sapiens, UniProt Q92769). In words: Inhibition of human recombinant HDAC2.
Chain of Histone deacetylase 2 (Q92769 whole entry): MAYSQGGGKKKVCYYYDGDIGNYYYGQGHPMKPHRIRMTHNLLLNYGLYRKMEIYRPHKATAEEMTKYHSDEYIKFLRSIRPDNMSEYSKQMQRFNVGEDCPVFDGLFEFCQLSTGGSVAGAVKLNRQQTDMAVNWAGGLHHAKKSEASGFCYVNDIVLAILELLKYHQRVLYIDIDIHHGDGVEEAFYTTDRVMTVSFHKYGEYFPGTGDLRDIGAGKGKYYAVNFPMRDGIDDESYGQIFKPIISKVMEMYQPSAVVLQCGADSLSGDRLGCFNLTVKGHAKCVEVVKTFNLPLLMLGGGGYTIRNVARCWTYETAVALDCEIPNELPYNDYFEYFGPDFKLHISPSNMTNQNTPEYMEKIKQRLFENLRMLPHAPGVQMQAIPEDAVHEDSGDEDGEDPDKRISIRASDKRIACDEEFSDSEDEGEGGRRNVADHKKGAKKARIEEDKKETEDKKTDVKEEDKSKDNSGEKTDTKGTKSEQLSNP

Chain of Fibroblast growth factor receptor 1 (P11362 whole entry, the tested form may be a part): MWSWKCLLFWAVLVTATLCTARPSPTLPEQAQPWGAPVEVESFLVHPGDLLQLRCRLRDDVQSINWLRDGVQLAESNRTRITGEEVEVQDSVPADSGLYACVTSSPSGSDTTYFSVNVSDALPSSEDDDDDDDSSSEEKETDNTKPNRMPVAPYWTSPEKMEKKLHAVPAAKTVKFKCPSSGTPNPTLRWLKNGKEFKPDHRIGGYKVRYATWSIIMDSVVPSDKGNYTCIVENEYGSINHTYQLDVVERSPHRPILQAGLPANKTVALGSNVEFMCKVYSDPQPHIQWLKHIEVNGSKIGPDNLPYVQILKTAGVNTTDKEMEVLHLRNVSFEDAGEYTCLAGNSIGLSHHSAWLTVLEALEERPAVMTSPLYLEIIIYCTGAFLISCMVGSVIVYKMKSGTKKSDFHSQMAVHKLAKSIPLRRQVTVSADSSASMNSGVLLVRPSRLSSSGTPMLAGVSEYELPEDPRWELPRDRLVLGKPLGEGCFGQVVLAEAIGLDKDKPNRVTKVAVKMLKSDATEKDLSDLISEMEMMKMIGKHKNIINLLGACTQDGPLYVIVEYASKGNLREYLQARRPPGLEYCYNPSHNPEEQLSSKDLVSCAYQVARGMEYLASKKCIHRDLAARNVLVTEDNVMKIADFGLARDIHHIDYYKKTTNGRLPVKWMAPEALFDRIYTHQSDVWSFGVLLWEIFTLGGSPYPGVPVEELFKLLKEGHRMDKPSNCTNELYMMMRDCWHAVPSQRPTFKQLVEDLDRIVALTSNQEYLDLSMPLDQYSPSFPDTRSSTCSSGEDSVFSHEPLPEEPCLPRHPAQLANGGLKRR
Chain of Amine oxidase [flavin-containing] B (P27338 whole entry): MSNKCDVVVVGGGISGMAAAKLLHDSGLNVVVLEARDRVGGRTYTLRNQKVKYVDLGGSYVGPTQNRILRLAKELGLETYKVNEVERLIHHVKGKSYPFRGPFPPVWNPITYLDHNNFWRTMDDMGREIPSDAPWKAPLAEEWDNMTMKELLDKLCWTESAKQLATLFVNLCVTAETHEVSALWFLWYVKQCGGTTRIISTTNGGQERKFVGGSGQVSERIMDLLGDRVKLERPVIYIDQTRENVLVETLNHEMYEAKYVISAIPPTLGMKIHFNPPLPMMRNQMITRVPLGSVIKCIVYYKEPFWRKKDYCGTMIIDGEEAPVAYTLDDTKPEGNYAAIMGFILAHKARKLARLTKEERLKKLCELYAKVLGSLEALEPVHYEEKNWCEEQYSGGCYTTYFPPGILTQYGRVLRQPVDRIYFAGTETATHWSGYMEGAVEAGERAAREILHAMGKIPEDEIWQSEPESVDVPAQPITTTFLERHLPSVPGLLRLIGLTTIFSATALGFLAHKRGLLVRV
Chain of Histone deacetylase 1 (Q13547 whole entry): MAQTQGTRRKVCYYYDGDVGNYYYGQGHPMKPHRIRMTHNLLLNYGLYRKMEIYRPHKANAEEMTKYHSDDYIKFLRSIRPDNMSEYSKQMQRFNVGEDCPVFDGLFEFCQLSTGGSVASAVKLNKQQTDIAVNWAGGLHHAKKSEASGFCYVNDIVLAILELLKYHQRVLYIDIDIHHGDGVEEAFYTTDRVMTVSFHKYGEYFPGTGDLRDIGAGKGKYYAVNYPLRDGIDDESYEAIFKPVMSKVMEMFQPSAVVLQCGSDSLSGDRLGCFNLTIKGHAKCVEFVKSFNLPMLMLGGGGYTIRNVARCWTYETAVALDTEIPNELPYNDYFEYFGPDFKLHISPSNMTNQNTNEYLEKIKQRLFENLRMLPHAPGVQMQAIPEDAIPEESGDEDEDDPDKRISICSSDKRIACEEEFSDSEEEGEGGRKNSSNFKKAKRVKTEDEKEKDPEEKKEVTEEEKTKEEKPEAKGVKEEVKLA
Chain of Histone deacetylase 3 (O15379 whole entry): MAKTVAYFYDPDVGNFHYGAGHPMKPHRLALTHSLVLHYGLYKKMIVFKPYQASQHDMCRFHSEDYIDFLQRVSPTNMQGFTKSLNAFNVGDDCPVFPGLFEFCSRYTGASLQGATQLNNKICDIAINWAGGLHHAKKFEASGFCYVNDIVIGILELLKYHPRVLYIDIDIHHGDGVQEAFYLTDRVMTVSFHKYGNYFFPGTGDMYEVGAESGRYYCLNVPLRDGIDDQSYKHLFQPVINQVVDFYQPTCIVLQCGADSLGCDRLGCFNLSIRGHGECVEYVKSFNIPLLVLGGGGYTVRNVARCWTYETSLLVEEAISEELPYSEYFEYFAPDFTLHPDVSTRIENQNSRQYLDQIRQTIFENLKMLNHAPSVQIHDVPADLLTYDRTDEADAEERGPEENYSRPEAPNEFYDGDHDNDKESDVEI

For orientation: IC50 means the concentration that inhibits the measured activity by half. Consider `c1cc2cc(-c3cnc4nc(-c5ccc6c(c5)OCCO6)cnc4c3)ccc2[nH]1`, for which the results for the IC50 in [1] and in data set [2] were 0.09 µM and 0.15 µM, respectively.

For the compound `c1ccc(CNc2c(-c3ccncc3)nc3cnccn23)cc1`, the IC50 in data set [3], in [4] and in [5] was 6.66 µM in each case.

`O=C(Nc1ccc2c(ccn2Cc2cccc(F)c2)c1)c1cnccn1`: the IC50 in data set [6] turned out to be 0.78 µM.

In the case of `CNCc1ccc(-c2cc(-c3nc(-c4ccc(S(=O)(=O)C(C)C)cc4)cnc3N)on2)cc1` [BERZOSERTIB], the concentration for half-maximal inhibition (IC50) in [7] stood at 0.019 µM.

For `COc1cc(OC)c(F)c(/C=C/c2cnc3c(n2)N(S(=O)(=O)c2cn(CCF)cn2)CC3)c1F`, the 50% inhibitory concentration (IC50) in data set [8] stood at 0.0005 µM; in [9], 0.6 µM.

Consider `COc1ccc(OCCN2CCn3nnc(-c4cc(C(C)C)c(O)cc4O)c3C2)cc1`, for which the IC50 stood at 5.58 µM in data set [10]; 4.15 µM in data set [11]; 2.29 µM in [12]; 10.2 µM in [13]; 6.74 µM in data set [14].

As for `C[C@H](O)[C@@]1(C)CCC2[C@]3(C)CC=C4C(C)(C)c5nc(C(=O)NCCc6ccccc6)cnc5C[C@]4(C)[C@H]3CC[C@@]21C` (stereo not given in full), in data set [15], the IC50 at 48 h was 26.7 µM. The “Ratio IC50” value in data set [16] is recorded as 28.71. In [17], the IC50 is 0.93 µM.

With `COc1ccc(-c2cn3c(-c4ccc(OC)cc4)cnc3c(Oc3ccc4c(C)cc(=O)oc4c3)n2)cc1`, the Activity in data set [18] was determined as 83.52%; in data set [19], 91.98%; in data set [20] it was 93.71%; in data set [21], 83.52%; in data set [22] it was 85.69%.

The GI50 is the concentration at which growth is held to half of that of the control. In the case of `COC(=O)c1sc2nccnc2c1Nc1cc(OC)cc(OC)c1`, the results for the GI50 in data set [23], in data set [24] and in [25] were 87 µM, 41 µM and 53 µM, respectively. In data set [26], this compound gave an IC50 at 48 h of 144 µM.

With `N#Cc1cncc(Cl)n1`, the figures for the IC50 in [27] and in [28] were 95.7 µM and 18.2 µM, respectively.

As for `c1cc(-c2nc3cnccn3c2NC2CCCCC2)ccn1`, in [29], the IC50 was found to be 57 µM.

Usually EC50 stands for the concentration needed to bring the measured effect to its halfway point. As for `CC(OC(=O)c1ccccc1)c1cnccn1` (stereo not given), the EC50 amounted to 0.019 mg/L (≈ 0.0832 µM) in data set [30] and 0.187 mg/L (≈ 0.819 µM) in [31].

In the case of `COc1cnc(C(=O)NCC2(C)CCCC3(C)c4ccc(C(C)C)cc4CCC23)cn1` (stereo not given), the 50% inhibitory concentration (IC50) in data set [32] came out at 0.13 µM; in data set [33], 0.31 µM; in data set [34], 6.66 µM; in data set [35], 0.28 µM.
